Experimental data taken from patent US11311576B2, “Methods of use for CAR T cells” (Seattle Children's Hospital, priority 2018, dated 2022).

Key:
[1] = molecular target: T1, FRα (KB) (Homo sapiens, UniProt P15328); experiment: 3H-EC17 cell-based radioligand binding assay, KB cells; conditions: 2 h at 37° C.
T1 construct: endogenous in cells; host or cells: KB cells (human cervical carcinoma with HeLa markers)
Procedure: The bispecific affinities of EC17 CAM were assessed using ^3H-EC17 in cell-based radioligand binding assays. For binding to FR+ targets, KB and CHO-β cells were pre-seeded overnight in 24-well tissue culture plates and incubated with 0.1, 0.5, 1, 5, 10, 20, and 40 nM of ^3H-EC17 in FFRPMI for 2 h at 37° C. Afterwards, the cells were rinsed with phosphate-buffered saline (PBS, pH 7.4) and lysed with 1% sodium dodecylsulfate. The whole cell lysates were quantitated for the level of radioactivity and cellular protein content by standard Pierce BCA protein assay. The number of ^3H-EC17 molecules bound per cell was calculated to determine the dissociation constants (Kd) for FRα (KB) and FRβ (CHO-b) respectively (FIG. 56A, FIG. 56B).

[2] = tested on: E2-CAR-T cells; experiment: 3H-EC17 uptake by E2-CAR-T cells; type: binding, human; conditions: read-out: Kd of 3H-EC17 (estimated); unsorted E2-CAR-T cells (~24% EGFRt+, ~95:5 CD8/CD4), 2 hour at room temperature
Excerpt: (calculated from the numbers of molecules bound per cell).
Principle Components of CAM Controlled CAR T Cell Therapy. The basic components of the CAR-T cell therapy involve FITC as the pseudo tumor antigen, the high affinity EC17 CAM (a CAM is equivalent to a bridge or the “compound” in this application), and a rationally designed anti-FITC CAR and CAR-modified T cells. The EC17 has already been tested in the clinic for immunotherapy and optical imaging purposes. To directly quantify its bispecific binding affinities, ^3H-EC17 was synthesized and radioligand binding assays were carried out on KB and CHO-β cell lines representing FRα+ and FRβ+ target cells, respectively, and on unsorted EGFRt CAR-T cells representing the effector cells.

[3] = tested on: MDA-MB-231 tumors; experiment: EC17/E2-CAR T-cell therapy in NSG mice bearing MDA-MB-231 tumors; type: in vivo; conditions: 10 million E2 CAR-T cells, EC17 500 nmol/kg days 2 and 10, versus no EC17
Procedure: MDA-MB-231 tumor cells were grown in folate-deficient RPMI 1640 with 5-10% FBS at 37° C. in a 5% CO2 humidified atmosphere. MDA-MB-231 tumor cells were inoculated subcutaneously at 2.5×10^6 cells per animal. Only […] mice were inoculated and the remaining 22 mice were kept tumor-free.
EGFRt-sorted anti-FITC E2 scFv-CAR T cells were frozen in a T-cell freezing medium. Vials of frozen CAR-T cells were immediately stored at −80° C. The CAR-T cells were quickly thawed at 37° C., washed twice with PBS, and used for animal injection at 10 million viable EGFRt+E2 CAR-T cells (CD4/CD8 at ˜1:1) per animal. […]
(§1) Whole blood cell analysis: Plasma was removed from predetermined volumes of whole EDTA treated blood and RBCs were lysed with RBC lysis solution. […] Determination of the concentration of CAR T cells in each blood sample was calculated according to Invitrogen's instructions. CAR T cells were identified as human CD3ε+ EGFRt+ events and easily distinguished and counted using the Kaluza™ flow cytometry software. The number of CAR T cells in the circulation of each infused mouse was then represented on the graphs as the total number of CAR T cells per 100 μL of whole blood analyzed. Statistical significance was determined by utilizing an unpaired, two-tailed, students t30 test with significance set at p<0.05. […]

[4] = EC17/E2-CAR T-cell therapy in naïve NSG mice without tumor; type: in vivo; conditions: 10 million E2 CAR-T cells, EC17 500 nmol/kg x2 doses
Procedure: EGFRt-sorted anti-FITC E2 scFv-CAR T cells were frozen in a T-cell freezing medium. Vials of frozen CAR-T cells were immediately stored at −80° C. The CAR-T cells were quickly thawed at 37° C., washed twice with PBS, and used for animal injection at 10 million viable EGFRt+E2 CAR-T cells (CD4/CD8 at ˜1:1) per animal. A small aliquot was taken on the day infusion for flow cytometric analysis of E2-CAR T-cell phenotypes.
Mouse blood samples were processed for plasma and stored at −20° C. until use. A human TH1 cytokine panel (Biolegend, Cat. No. 740009) and a human hematopoietic stem cell cytokine panel (Biolegend, Cat. No. 740610) was used to detect human cytokines in the mouse blood. […]
as §1

T1 sequence (P15328 25-234): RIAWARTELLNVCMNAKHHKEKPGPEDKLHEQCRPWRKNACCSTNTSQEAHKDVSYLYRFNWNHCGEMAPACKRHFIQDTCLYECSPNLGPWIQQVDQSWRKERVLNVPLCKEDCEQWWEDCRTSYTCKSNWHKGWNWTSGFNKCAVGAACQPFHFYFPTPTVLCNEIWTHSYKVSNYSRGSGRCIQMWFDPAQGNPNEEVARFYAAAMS

For `NC1=NC2N=CC(CNc3ccc(C(=O)N[C@@H](CCC(=O)NCCNC(=S)Nc4ccc(-c5c6ccc(=O)cc-6oc6cc(O)ccc56)c(C(=O)O)c4)C(=O)O)cc3)=NC2C(=O)N1` (stereo partly shown) [EC17, FA-(g)-ethylenediamine-FITC], the Kd [1] was 0.0017 µM, the Kd [2] was about 0.13 µM and the “cytokine levels (IL2, IFN-γ, IL-10) in plasma” value [3] was “all increased”. The “IFN-g production, difference between tumor-free and MDA-MB-231 tumor-bearing mice” value [4] was 23 fold.
